According to ChEMBL document CHEMBL5303573, “Mapping human microbiome drug metabolism by gut bacteria and their genes” (Nature, 2019):

Assays:
Settings in all cases: 2 µM
[1] = The drug is tested on Providencia alcalifaciens strain: DSM30120 for biotransformation. The drug concentrations were measured before and after a 12-h incubation by liquid-chromatography-coupled mass spectrometry (LC–MS)
[2] = The drug is tested on Bacteroides fragilis strain: T(B)9 for biotransformation. The drug concentrations were measured before and after a 12-h incubation by liquid-chromatography-coupled mass spectrometry (LC–MS)
[3] = biological target: T1, Pyridine nucleotide-disulfide oxidoreductase (Collinsella aerofaciens, UniProt A4EBM5); experiment: (§1) The drug is tested on Collinsella aerofaciens strain: ATCC25986 for biotransformation. The drug concentrations were measured before and after a 12-h incubation by liquid-chromatography-coupled mass spectrometry (LC–MS); format: ADME; parameters: dose 2 uM
T1 sequence (A4EBM5 whole entry): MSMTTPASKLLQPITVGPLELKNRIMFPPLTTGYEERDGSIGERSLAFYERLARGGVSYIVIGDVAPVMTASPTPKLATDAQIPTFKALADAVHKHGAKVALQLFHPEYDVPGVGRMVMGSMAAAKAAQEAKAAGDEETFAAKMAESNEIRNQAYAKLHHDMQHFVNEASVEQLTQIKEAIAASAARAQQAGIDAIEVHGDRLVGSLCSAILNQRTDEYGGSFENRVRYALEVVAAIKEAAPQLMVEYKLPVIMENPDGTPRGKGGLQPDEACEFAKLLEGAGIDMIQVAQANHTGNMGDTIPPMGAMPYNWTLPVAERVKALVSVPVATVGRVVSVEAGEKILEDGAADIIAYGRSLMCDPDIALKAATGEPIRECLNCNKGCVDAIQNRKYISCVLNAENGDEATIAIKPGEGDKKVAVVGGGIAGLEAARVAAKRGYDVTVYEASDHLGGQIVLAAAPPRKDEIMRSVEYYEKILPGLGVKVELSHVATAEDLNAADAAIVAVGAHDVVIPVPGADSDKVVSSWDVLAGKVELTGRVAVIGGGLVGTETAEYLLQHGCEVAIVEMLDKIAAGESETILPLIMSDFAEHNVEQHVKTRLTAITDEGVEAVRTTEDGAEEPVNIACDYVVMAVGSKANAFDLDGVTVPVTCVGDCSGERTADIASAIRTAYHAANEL

[4] = biological target: T2, Flavodoxin (Collinsella aerofaciens, UniProt A4ED08); experiment: as §1; format: ADME; parameters: dose 2 uM
T2 sequence (A4ED08 whole entry): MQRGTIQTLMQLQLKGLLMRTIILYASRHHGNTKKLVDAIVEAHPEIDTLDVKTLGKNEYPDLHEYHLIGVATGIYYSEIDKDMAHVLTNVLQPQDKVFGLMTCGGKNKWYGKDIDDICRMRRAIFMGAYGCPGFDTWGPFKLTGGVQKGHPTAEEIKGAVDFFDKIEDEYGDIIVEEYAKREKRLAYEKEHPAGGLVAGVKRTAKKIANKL

[5] = biological target: T3, GDSL-like protein (Collinsella aerofaciens, UniProt A4E7D0); experiment: as §1; format: ADME; parameters: dose 2 uM
T3 sequence (A4E7D0 whole entry): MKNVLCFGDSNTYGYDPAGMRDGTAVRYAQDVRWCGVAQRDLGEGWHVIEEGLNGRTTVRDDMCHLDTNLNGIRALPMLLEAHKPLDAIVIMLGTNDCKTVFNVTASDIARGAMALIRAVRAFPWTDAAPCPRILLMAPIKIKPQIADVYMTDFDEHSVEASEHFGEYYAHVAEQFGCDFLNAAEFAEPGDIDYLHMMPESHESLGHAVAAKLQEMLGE

[6] = biological target: T4, Acylhydrolase (Bacteroides thetaiotaomicron, UniProt Q8AA96); experiment: (§2) The drug is tested on Bacteroides thetaiotaomicron strain: VPI-5482 for biotransformation. The drug concentrations were measured before and after a 12-h incubation by liquid-chromatography-coupled mass spectrometry (LC–MS); format: ADME; parameters: dose 2 uM
T4 sequence (Q8AA96 whole entry): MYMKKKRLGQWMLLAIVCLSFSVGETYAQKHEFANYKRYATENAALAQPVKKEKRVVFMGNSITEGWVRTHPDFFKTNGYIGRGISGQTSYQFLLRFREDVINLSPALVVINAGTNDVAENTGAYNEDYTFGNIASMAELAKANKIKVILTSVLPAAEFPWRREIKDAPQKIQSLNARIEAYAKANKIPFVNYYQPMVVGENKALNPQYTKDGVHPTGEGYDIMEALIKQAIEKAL

[7] = biological target: T5, Acyltransferase (Bacteroides thetaiotaomicron, UniProt Q8A575); experiment: as §2; format: ADME; parameters: dose 2 uM
T5 sequence (Q8A575 whole entry): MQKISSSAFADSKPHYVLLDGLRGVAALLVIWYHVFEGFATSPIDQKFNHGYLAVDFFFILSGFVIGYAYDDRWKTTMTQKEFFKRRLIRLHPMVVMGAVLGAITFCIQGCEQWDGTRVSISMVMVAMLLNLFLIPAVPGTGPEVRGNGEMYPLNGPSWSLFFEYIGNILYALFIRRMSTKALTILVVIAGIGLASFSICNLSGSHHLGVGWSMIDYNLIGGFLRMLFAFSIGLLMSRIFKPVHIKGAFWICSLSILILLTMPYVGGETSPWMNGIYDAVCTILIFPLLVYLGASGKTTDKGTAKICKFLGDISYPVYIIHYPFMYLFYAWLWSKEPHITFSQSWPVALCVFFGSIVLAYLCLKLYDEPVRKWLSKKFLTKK

[8] = biological target: T6, Acetyl esterase (Acetylxylosidase) (Bacteroides thetaiotaomicron, UniProt Q8ABF8); experiment: as §2; format: ADME; parameters: dose 2 uM
T6 sequence (Q8ABF8 whole entry): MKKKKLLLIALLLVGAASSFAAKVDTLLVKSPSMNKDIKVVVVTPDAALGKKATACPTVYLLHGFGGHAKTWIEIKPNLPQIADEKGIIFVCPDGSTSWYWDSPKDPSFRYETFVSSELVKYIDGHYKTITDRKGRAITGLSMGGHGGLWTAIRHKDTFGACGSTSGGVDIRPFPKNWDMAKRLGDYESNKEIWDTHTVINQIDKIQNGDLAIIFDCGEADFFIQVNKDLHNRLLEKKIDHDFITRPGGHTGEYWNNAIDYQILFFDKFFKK

[9] = biological target: T7, Lipoprotein (Bacteroides thetaiotaomicron, UniProt Q8A343); experiment: as §2; format: ADME; parameters: dose 2 uM
T7 sequence (Q8A343 whole entry): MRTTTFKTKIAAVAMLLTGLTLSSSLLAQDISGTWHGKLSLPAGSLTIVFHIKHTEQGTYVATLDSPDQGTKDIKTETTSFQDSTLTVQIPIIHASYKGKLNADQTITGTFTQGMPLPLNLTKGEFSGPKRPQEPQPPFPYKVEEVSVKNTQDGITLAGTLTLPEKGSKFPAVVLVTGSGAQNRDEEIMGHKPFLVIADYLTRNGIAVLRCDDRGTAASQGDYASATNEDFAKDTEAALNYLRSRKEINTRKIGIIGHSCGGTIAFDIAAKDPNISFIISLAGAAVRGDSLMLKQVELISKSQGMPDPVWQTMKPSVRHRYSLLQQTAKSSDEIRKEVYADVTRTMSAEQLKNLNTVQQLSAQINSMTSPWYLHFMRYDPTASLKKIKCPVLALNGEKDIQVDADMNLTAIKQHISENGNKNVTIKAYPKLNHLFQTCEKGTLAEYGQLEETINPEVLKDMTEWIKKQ

SMILES | Bacterial Biotransformation [1] | Bacterial Biotransformation [2] | Bacterial Biotransformation [3] | Bacterial Biotransformation [4] | Bacterial Biotransformation [5] | Bacterial Biotransformation [6] | Bacterial Biotransformation [7] | Bacterial Biotransformation [8] | Bacterial Biotransformation [9]
CN1[C@@H]2CC[C@H]1C[C@@H](OC(=O)C(CO)c1ccccc1)C2 (some centres not stated) [ATROPINE] | Compound NOT metabolized | Compound NOT metabolized |  |  |  |  |  |  | 
CC(=O)OCC(=O)[C@@]1(OC(C)=O)[C@@H](C)C[C@H]2[C@@H]3C[C@H](F)C4=CC(=O)C=C[C@]4(C)[C@@]3(F)[C@@H](O)C[C@@]21C [DIFLORASONE DIACETATE] |  |  | Compound NOT metabolized | Compound NOT metabolized | Compound NOT metabolized | Compound metabolized | Compound NOT metabolized | Compound NOT metabolized | Compound NOT metabolized
COc1ccc([C@@H]2Sc3ccccc3N(CCN(C)C)C(=O)[C@@H]2OC(C)=O)cc1 [DILTIAZEM] |  |  | Compound NOT metabolized | Compound NOT metabolized | Compound NOT metabolized | Compound NOT metabolized | Compound NOT metabolized | Compound NOT metabolized | Compound NOT metabolized
CNCC[C@H](Oc1cccc2ccccc12)c1cccs1 [DULOXETINE] | Compound metabolized | Compound metabolized |  |  |  |  |  |  | 
CC(=O)OCC(CCn1cnc2cnc(N)nc21)COC(C)=O [FAMCICLOVIR] |  |  | Compound NOT metabolized | Compound NOT metabolized | Compound NOT metabolized | Compound metabolized | Compound NOT metabolized | Compound metabolized | Compound NOT metabolized
CC(C)(C(=O)O)c1ccc(C(O)CCCN2CCC(C(O)(c3ccccc3)c3ccccc3)CC2)cc1 (configuration not stated) [FEXOFENADINE] | Compound NOT metabolized | Compound NOT metabolized |  |  |  |  |  |  | 
O=C(CCCN1CCC(O)(c2ccc(Cl)cc2)CC1)c1ccc(F)cc1 [HALOPERIDOL] | Compound NOT metabolized |  |  |  |  |  |  |  | 
Cc1ccc(NC(=O)c2ccc(CN3CCN(C)CC3)cc2)cc1Nc1nccc(-c2cccnc2)n1 [IMATINIB] | Compound NOT metabolized | Compound NOT metabolized |  |  |  |  |  |  | 
C#C[C@]1(O)CC[C@H]2[C@@H]3CCC4=CC(=O)CC[C@@H]4[C@H]3CC[C@@]21CC [LEVONORGESTREL] |  |  | Compound NOT metabolized | Compound NOT metabolized | Compound NOT metabolized | Compound NOT metabolized | Compound NOT metabolized | Compound NOT metabolized | Compound NOT metabolized
COC(=O)Nc1nc2ccc(C(=O)c3ccccc3)cc2[nH]1 [MEBENDAZOLE] | Compound NOT metabolized | Compound metabolized |  |  |  |  |  |  | 
COc1ccc2cc([C@H](C)C(=O)O)ccc2c1 [NAPROXEN] | Compound NOT metabolized | Compound NOT metabolized |  |  |  |  |  |  | 
C#C[C@]1(OC(C)=O)CC[C@H]2[C@@H]3CCC4=CC(=O)CC[C@@H]4[C@H]3CC[C@@]21C [NORETHINDRONE ACETATE] |  |  | Compound NOT metabolized | Compound NOT metabolized | Compound NOT metabolized | Compound NOT metabolized | Compound NOT metabolized | Compound NOT metabolized | Compound NOT metabolized
C#C[C@]1(OC(C)=O)CC[C@H]2[C@@H]3CCC4=C/C(=N/O)CC[C@@H]4[C@H]3CC[C@@]21CC [NORGESTIMATE] | Compound NOT metabolized | Compound NOT metabolized |  |  |  |  |  |  | 
N#Cc1ccc2c(c1)N(CCCN1CCC(O)CC1)c1ccccc1S2 [PERICIAZINE] |  |  | Compound NOT metabolized | Compound NOT metabolized | Compound NOT metabolized | Compound NOT metabolized | Compound metabolized | Compound NOT metabolized | Compound NOT metabolized
